Tests used:
[1] = In vitro plasma half-life; format: in vitro ADME; conditions: murine plasma; for half-life at 2 μM: mouse, plasma, read-out: Plasma T1/2 (converted)
Procedure: (§1) 12M11 (2 μM final concentration) was incubated with murine plasma and saline for 0-1440 minutes. Reactions were quenched with 200 μl (1:2) of methanol containing 0.1% formic acid and 200 ng/ml IS (IS final conc.=100 ng/mL). Samples were vortexed for 15 seconds, incubated at RT for 10 minutes and spun for 5 minutes at 13.2K rpm. Supernatant ([…]) was then transferred to an eppendorf tube and spun in a table top, chilled centrifuge for 5 minutes at 13.2K rpm. Supernatant (800 μL) was transferred to an HPLC vial (w/out insert). Analyzed by Qtrap 3200 mass spectrometer. These methods were used data obtained in the FIGS. 22C and 22F.

[2] = Buffer (saline) stability; format: physicochemical
Procedure: as §1

[3] = test system: Mut6; assay: Cytotox testing (CellTiter-Glo ATP assay) in Mut6 cells; format: cell-based, mouse; conditions: CellTiter-Glo; for EC50: Mus musculus, 96 h, Mut6 cells, 4 days, read-out: Activity in Mut6 [EC50]
Procedure: (§2) Mut6 tumor cells were cultured in DMEM/F12 media supplemented by EGF (10 ng/mL), basic FGF (10 ng/mL), heparin (4 ug/mL), glucose (total 21 mM), NaHCO3 (113 μg/mL), Hepes (119 μg/mL), glutamine (2 mM), sodium pyruvate (1 mM), N2 supplement (ThermoFisher Gibco 17502-048, 100×, at 100-fold dilution), B27 supplement (ThermoFisher Gibco 12587-010, 50×, at 100-fold dilution), and penicillin/streptomycin (ThermoFisher, final 1%). Cells were maintained in Ultra-low attachment plate (Corning) as sphere-forming cells. For ATP assays and protein/RNA isolation, cells were plated into 96-well plates or 6-well plated that were coated with poly-lysine (Sigma P6407, 10 μg/mL in PBS, 4 hr at 37° C.) and laminin (ThermoFisher 23017015, ˜5 mg/L in PBS, overnight at 37° C.). MEFs and Astrocytes were cultured in DMEM supplemented with 10% FBS and 1% Penicillin/Streptomycin.
2,000 cells were plated into each well of 96-well plates. About 3 hours later, cells were treated by 12M11, at 800-fold dilution (4 mM stock was diluted into 5 μM final concentration). […] CellTiter-Glo assay (Promega) was performed according to manufacturer's instructions, by adding 20 μL of reagent into each well. Luminescence signal was detected by the PolarStar plate reader (BMG Labtech). Experiments were performed in quadruplicate, and results are presented with mean average −/+ standard deviation. EC505 were calculated by GraphPad Prism6 software.
The compounds described herein were tested using a cell-based cytotoxicity assay against neuronal stem cells in Mut6, which is a mouse glioblastoma model cell line.

[4] = Murine S9 half-life; format: in vitro ADME; conditions: mouse, S9 fraction; murine S9, Phase I cofactors; read-out: S9 T1/2
Procedure: 22D. […] (2 mM in DMSO) was incubated with Murine S9 (Lot KWB) fraction and Phase I (NADPH Regenerating System) cofactors for 0-240 minutes. Reactions were quenched with 1 mL (1:1) of methanol containing 0.2% formic acid and 100 ng/ml IS (IS final conc.=50 ng/mL). Samples were vortexed for 15 seconds, incubated at RT for 10 minutes and spun for 5 minutes at 2400 rpm. Supernatant (1 mL) was then transferred to an eppendorf tube and spun in a table top, chilled centrifuge for 5 minutes at 13.2K rpm. Supernatant (800 uL) was transferred to an HPLC vial (w/out insert). Analyzed by Qtrap 3200 mass spectrometer. These methods were used data obtained in the FIGS. 22A and 22D.

[5] = test system: astrocytes; assay: Cytotox testing (CellTiter-Glo) in astrocytes; format: cell-based
Procedure: as §2
2,000 cells were plated into each well of 96-well plates. About 3 hours later, cells were treated by 12M11, at 800-fold dilution (4 mM stock was diluted into 5 μM final concentration). Cells were further incubated for 4 days. CellTiter-Glo assay (Promega) was performed according to manufacturer's instructions, by adding 20 μL of reagent into each well. Luminescence signal was detected by the PolarStar plate reader (BMG Labtech). Experiments were performed in quadruplicate, and results are presented with mean average −/+ standard deviation. EC505 were calculated by GraphPad Prism6 software.

Row | SMILES | Buffer Stability [2] [%] | EC50 [3] [nM] | half-life at 2 μM [1] [min] | other results
1 | CCc1n(CC(=O)O[C@@H]2C[C@H](C)CC[C@H]2C(C)C)c2ccccc2[n+]1C.[Cl-] | 100 | 100 to 1000 |  | Plasma T1/2 [1]: < 4 min
2 | CCc1n(CC(=O)OC)c2ccccc2[n+]1C |  | > 5000 |  | 
3 | CCc1n(CC(=O)Oc2ccccc2)c2ccccc2[n+]1C |  | > 5000 |  | 
4 | CCc1n(CC(=O)OCc2ccccc2)c2ccccc2[n+]1C |  | > 5000 |  | 
5 | CCc1n(CC(=O)O[C@H]2CC[C@@H](C)CC2)c2ccccc2[n+]1C |  | > 5000 |  | 
6 | CCc1n(CC(=O)O[C@H]2CC[C@H](C)CC2)c2ccccc2[n+]1C |  | > 5000 |  | 
7 | CCc1n(CC(=O)OCCOC)c2ccccc2[n+]1C |  | > 5000 |  | 
8 | C#CCCOC(=O)Cn1c(CC)[n+](C)c2ccccc21 |  | > 5000 |  | 
9 | COC(=O)Cn1c(C)nc2ccccc21 |  | > 5000 |  | 
10 | COC(=O)Cn1c(-c2ccccc2)nc2ccccc21 |  | > 5000 |  | 
11 | COC(=O)Cn1c(-c2ccc(N(C)C)cc2)nc2ccccc21 |  | > 5000 |  | 
12 | COC(=O)Cn1c(-c2ccc(C)cc2)nc2ccccc21 |  | > 5000 |  | 
13 | COC(=O)Cn1c(-c2ccc(SC)cc2)nc2ccccc21 |  | > 5000 |  | 
14 | COC(=O)Cn1c(-c2ccc(F)cc2)nc2ccccc21 |  | > 5000 |  | 
15 | COC(=O)Cn1c(-c2cccc(F)c2)nc2ccccc21 |  | > 5000 |  | 
16 | COC(=O)Cn1c(-c2cccc(C#N)c2)nc2ccccc21 |  | > 5000 |  | 
17 | COC(=O)Cn1c(-c2ccco2)nc2ccccc21 |  | > 5000 |  | 
18 | COC(=O)Cn1c(-c2ccccn2)nc2ccccc21 |  | > 5000 |  | 
19 | COC(=O)Cn1c(/C=C/c2ccccc2)nc2ccccc21 |  | > 5000 |  | 
20 | C/C=C/c1n(CC(=O)OC2C[C@H](C)CC[C@H]2C(C)C)c2ccccc2[n+]1C (stereo partly shown) |  | 1000 to 5000 |  | 
21 | CC(C)[C@@H]1CC[C@@H](C)CC1OC(=O)Cn1c(-c2ccccc2)nc2ccccc21 (stereo partly shown) |  | > 5000 |  | 
22 | CC(C)[C@@H]1CC[C@@H](C)CC1OC(=O)Cn1c(-c2ccccc2)[n+](C)c2ccccc21.[I-] (stereo partly shown) | 97 | 100 to 1000 | 10.6 | 

Row | SMILES | Buffer Stability [2] [%] | EC50 [3] [nM] | half-life at 2 μM [1] [min] | other results
23 | CC(C)[C@@H]1CC[C@@H](C)CC1OC(=O)Cn1c(-c2ccc(O)cc2)nc2ccccc21 (stereo partly shown) |  | > 5000 |  | 
24 | CC(C)[C@@H]1CC[C@@H](C)CC1OC(=O)Cn1c(-c2cccc(Br)c2)nc2ccccc21 (stereo partly shown) |  | > 5000 |  | 
25 | CC(C)[C@@H]1CC[C@@H](C)CC1OC(=O)Cn1c(-c2ccc(N=[N+]=[N-])cc2)nc2ccccc21 (stereo partly shown) |  | > 5000 |  | 
26 | CC(C)[C@@H]1CC[C@@H](C)CC1OC(=O)Cn1c(-c2ccc(O)cc2)[n+](C)c2ccccc21.[I-] (stereo partly shown) | 114 | 1000 to 5000 | 9.8 | half-life [4]: 133 min
27 | CC(C)[C@@H]1CC[C@@H](C)CC1OC(=O)Cn1c(-c2cccc(Br)c2)[n+](C)c2ccccc21.[I-] (stereo partly shown) | 94 | 100 to 1000 | 29 | 
28 | CC(C)[C@@H]1CC[C@@H](C)CC1OC(=O)Cn1c(-c2ccc(N=[N+]=[N-])cc2)[n+](C)c2ccccc21.[I-] (stereo partly shown) | 96 | 100 to 1000 | 26 | half-life [4]: 26 min
29 | CC(C)[C@@H]1CC[C@@H](C)CC1OC(=O)Cn1c(-c2ccccc2[N+](=O)[O-])[n+](C)c2ccccc21.[I-] (stereo partly shown) | 100 | 100 to 1000 | 47 | half-life [4]: > 240 min
30 | CC(C)[C@@H]1CC[C@@H](C)CC1OC(=O)Cn1c(-c2cccc([N+](=O)[O-])c2)[n+](C)c2ccccc21.[I-] (stereo partly shown) | 133 | 1000 to 5000 | 330 | half-life [4]: > 240 min
31 | CC(C)[C@@H]1CC[C@@H](C)CC1OC(=O)Cn1c(-c2ccc([N+](=O)[O-])cc2)[n+](C)c2ccccc21.[I-] (stereo partly shown) | 100 | 1000 to 5000 | 90 | half-life [4]: 139 min
32 | CC(C)[C@@H]1CC[C@@H](C)CC1OC(=O)Cn1c(-c2cccc(F)c2)[n+](C)c2ccccc21.[I-] (stereo partly shown) | 100 | 100 to 1000 | 11 | 
33 | CC(C)[C@@H]1CC[C@@H](C)CC1OC(=O)Cn1c(-c2cccc(C#N)c2)[n+](C)c2ccccc21 (stereo partly shown) |  | > 5000 |  | 
34 | CSc1ccc(-c2n(CC(=O)OC3C[C@H](C)CC[C@H]3C(C)C)c3ccccc3[n+]2C)cc1.[I-] (stereo partly shown) | 100 | 100 to 1000 | 10 | 
35 | CC(C)[C@@H]1CC[C@@H](C)CC1OC(=O)Cn1c(-c2ccc(N(C)C)cc2)[n+](C)c2ccccc21.[I-] (stereo partly shown) | 9 | < 100 | 8 | 
36 | Cc1ccccc1-c1n(CC(=O)OC2C[C@H](C)CC[C@H]2C(C)C)c2ccccc2[n+]1C.[I-] (stereo partly shown) | 100 | 100 to 1000 | 73 | 
37 | Cc1ccc(-c2n(CC(=O)OC3C[C@H](C)CC[C@H]3C(C)C)c3ccccc3[n+]2C)cc1.[I-] (stereo partly shown) | 95 | 100 to 1000 | 24 | 
38 | CC(C)[C@@H]1CC[C@@H](C)CC1OC(=O)Cn1c(-c2cccc(C(F)(F)F)c2)[n+](C)c2ccccc21.[I-] (stereo partly shown) | 100 | 100 to 1000 | 240 | half-life [4]: > 240 min
39 | CC(C)[C@@H]1CC[C@@H](C)CC1OC(=O)Cn1c(-c2cc(Cl)cc(Cl)c2)[n+](C)c2ccccc21.[I-] (stereo partly shown) | 91 | 100 to 1000 | 39 | 
40 | COc1ccc(-c2n(CC(=O)OC3C[C@H](C)CC[C@H]3C(C)C)c3ccccc3[n+]2C)cc1.[I-] (stereo partly shown) | 100 | 100 to 1000 | 15 | 
41 | CC(C)[C@@H]1CC[C@@H](C)CC1OC(=O)Cn1c(-c2ccc(N3CCCC3)cc2)[n+](C)c2ccccc21 (stereo partly shown) |  | < 100 |  | 
42 | CC(C)[C@@H]1CC[C@@H](C)CC1OC(=O)Cn1c(-c2ccc(N3CCCCC3)cc2)[n+](C)c2ccccc21 (stereo partly shown) |  | < 100 |  | 
43 | C[C@@H]1C[C@@H]([C@H](O)CC2CC(=O)NC(=O)C2)C(=O)[C@@H](C)C1 [cycloheximide, reference compound] |  |  |  | activity against Mut6 cells [3]: sensitive; activity against astrocytes [5]: sensitive

— patent publication US20180354909A1, “SUBSTITUTED BENZIMIDAZOLIUM, PYRIDO-IMIDAZOLIUM, OR PYRAZINO-IMIDAZOLIUM COMPOUNDS AS CHEMOTHERAPEUTICS” (The Board of Regents of the University of Texas System, priority 2015, published 2018)
